Results as given in US20070066608A1, “Novel indole derivatives with an improved antipsychotic activity” (priority 2003, published 2007).

Columns and labels:
[1] = target: T1, Human Dopamine D2L receptor (Homo sapiens, UniProt P14416); assay: Radioligand binding experiment for dopamine D2 receptor (hD2), [3H]Spiperone; conditions: membranes of D2L receptor-transfected CHO cells, read-out: pIC50 D2 (converted)
T1 construct: expressed in transfected cells; host or cells: CHO cells
Experimental: (§1) The interaction of the compounds of Formula (I) with dopamine-receptors, h5HT-transporter and h5HT1A receptor was assessed in in vitro radioligand binding experiments. In general, a low concentration of a radioligand with a high binding affinity for a particular receptor or transporter is incubated with a sample of a tissue preparation enriched in a particular receptor or transporter or with a preparation of cells expressing cloned human receptors in a buffered medium. During the incubation, the radioligand binds to the receptor or transporter. When equilibrium of binding is reached, the receptor bound radioactivity is separated from the non-bound radioactivity, and the receptor- or transporter-bound activity is counted The interaction of the test compounds with the receptor is assessed in competition binding experiments. Various concentrations of the test compound are added to the incubation mixture containing the receptor- or transporter preparation and the radioligand. The test compound in proportion to its binding affinity and its concentration inhibits binding of the radioligand.
Human Dopamine D2L receptor-transfected CHO cells were collected by scraping into ice-cold Tris-HCl buffer ([…], pH 7.4). The suspension was centrifuged (23 500×g, 10 min, 4° C.) and pellets stored at −70° C. until require. They were then thawed and briefly homogenised using an Ultra-Turrax T25 homogeniser prior to dilution to an appropriate protein concentration optimised for specific and non-specific binding. [^3H]Spiperone (NEN, specific activity˜70 Ci/mmol) was diluted in Tris-HCl assay buffer containing NaCl, CaCl2, MgCl2, KCI (50, 120, 2, 1, and 5 mM respectively, adjusted to pH 7.7 with HCl) at a concentration of 2 nmol/L. Prepared radioligand (50 μl) was then incubated (30 min, 37° C.) with membrane preparations pre-diluted to an appropriate protein concentration (400 μl), and with 50 μl of either the 10% DMSO control, Butaclamol (10^−6 mol/L final concentration), or compound of interest. Membrane-bound activity was detected by filtration through a Packard Filtermate harvester onto Unifilterplates, washing with ice-old Tris-HCl buffer (50 mM; pH8.0; 3×4 ml). Filters were allowed to dry before adding scintillation fluid and counting in a Topcount scintillation counter. % Specific bound and competition binding curves were calculated using S-Plus software (Insightful).

[2] = target: T2, Human Dopamine D4 receptor (Homo sapiens, UniProt P21917); assay: Radioligand binding experiment for dopamine D4 receptor (hD4), [125I]Spiperone; conditions: membranes of D4 receptor-transfected Sf9 cells, read-out: pIC50 D4 (converted)
T2 construct: expressed in transfected cells; host or cells: Sf9 cells
T2 sequence (P21917 1-419): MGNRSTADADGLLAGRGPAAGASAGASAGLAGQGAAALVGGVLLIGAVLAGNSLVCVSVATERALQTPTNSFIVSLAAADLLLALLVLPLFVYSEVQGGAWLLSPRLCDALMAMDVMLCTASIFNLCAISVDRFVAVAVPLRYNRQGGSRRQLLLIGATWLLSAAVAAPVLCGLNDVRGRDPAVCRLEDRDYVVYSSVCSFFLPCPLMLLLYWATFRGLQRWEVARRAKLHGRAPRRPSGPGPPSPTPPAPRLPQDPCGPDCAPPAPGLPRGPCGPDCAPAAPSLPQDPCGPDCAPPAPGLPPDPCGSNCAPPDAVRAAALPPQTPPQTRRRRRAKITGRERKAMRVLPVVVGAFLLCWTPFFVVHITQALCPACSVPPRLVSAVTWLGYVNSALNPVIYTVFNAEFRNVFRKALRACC
Experimental: as §1, with “The test compound in proportion to its binding affinity and its concentration inhibits binding of the radioligand.” left out
Human Dopamine D4 receptor-transfected Sf9 cells were collected by scraping into ice-cold Tris-HCl buffer (50 mM, pH 7.4). […] Filters were allowed to dry before adding scintillation fluid and counting in a Topcount scintillation counter. % Specific bound and competition binding curves were calculated using S-Plus software (Insightful).

human 5HT transporter = target: T3, human 5HT transporter (Homo sapiens, UniProt P31645); assay: Binding experiment for 5-HT transporter, [3H]Paroxetine; conditions: 5HT transporter-transfected HEK cells, [3H]Paroxetine binding; read-out: pIC50 5HT reuptake inhibition (converted)
T3 construct: host or cells: HEK cells
Experimental: as §1
Frozen human 5HT transporter-transfected HEK cells (Perkin Elmer, Brussels) were thawed and briefly homogenised using an Ultra-Turrax T25 homogeniser prior to dilution to an appropriate protein concentration optimised for specific and non-specific binding. [^3H]Paroxetine (NEN, specific activity 20 Ci/mmol) was diluted in Tris-HCl assay buffer containing NaCl and KCl (50 mM 120 mM and 5 mM, respectively; pH 7.4) at a concentration of 5 nmol/L. Prepared radioligand (25 μl) was then incubated (60 min, 25° C.) with membrane preparations (200 μl) and with 25 μl of either 10% DMSO control, Imipramine (10^−6 mol/L final concentration), or compound of interest Membrane-bound activity was detected by filtration through a Packard Filtermate harvester onto Unifilterplates pre-soaked in 0.1% PEI, washing with ice-cold assay buffer (3×4 ml). Filters were dried prior to addition of scintillation fluid and then counting in a Topcount scintillation counter. % Specific bound and competition binding curves were calculated using S-Plus software (Insightful).

Human 5HT1A receptor = target: T4, Human 5HT1A receptor (Homo sapiens, UniProt P08908); assay: Binding experiment for 5-HT1A receptor, [3H]8OHDPAT; conditions: membranes of 5HT1A receptor-transfected L929 cells, read-out: pIC50 5HT1A (converted)
T4 construct: expressed in transfected cells; host or cells: L929 cells (stably transfected)
T4 sequence (P08908 1-422): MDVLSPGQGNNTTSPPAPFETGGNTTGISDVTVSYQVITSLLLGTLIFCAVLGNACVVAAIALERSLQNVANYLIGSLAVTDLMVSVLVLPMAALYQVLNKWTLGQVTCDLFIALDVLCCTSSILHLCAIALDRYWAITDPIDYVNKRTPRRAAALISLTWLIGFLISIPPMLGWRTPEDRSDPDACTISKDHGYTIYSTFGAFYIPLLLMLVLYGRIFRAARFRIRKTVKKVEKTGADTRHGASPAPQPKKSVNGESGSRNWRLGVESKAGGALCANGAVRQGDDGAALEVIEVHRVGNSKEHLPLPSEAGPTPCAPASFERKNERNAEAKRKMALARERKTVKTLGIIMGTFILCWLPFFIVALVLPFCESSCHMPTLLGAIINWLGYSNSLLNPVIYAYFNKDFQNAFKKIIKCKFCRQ
Experimental: as §1
Human 5HT1A receptor-transfected L929 cells were collected by scraping into ice-cold Tris-HCl buffer (50 mM, pH 7.4). The suspension was centrifuged (23 500×g, 10 min, 4° C.) and pellets stored at −70° C. until required. They were then thawed and briefly homogenised using an Ultra-Turrax T25 homogeniser prior to dilution to an appropriate protein concentration optimised for specific and non-specific binding. [^3H]8OHDPAT (NEN, specific activity 127 Ci/mmol) was diluted in Tris-HCl assay buffer containing CaCl2 (50 mM and 4 mM, respectively; pH 7.7) at a concentration of 5 nmol/L. Prepared radioligand (50 μl) was then incubated (30 min, 37° C.) with membrane preparations from L929 cells stably-transfected with the h5HT1A gene construct (400 μl) and with 50 μl of either the 10% DMSO control, spiroxatrine (10^−6 mol/L final concentration), or compound of interest. Membrane-bound activity was detected by filtration through a Packard Filtermate harvester onto Unifaltemplates, washing with ice-cold Tris-HCI buffer (3×4 ml), followed by drying. Scintillation fluid was added and membranes were counted in a Topcount scintillation counter. % Specific bound and competition binding curves were calculated using S-Plus software (Insightful).

T3 sequence (P31645 whole entry): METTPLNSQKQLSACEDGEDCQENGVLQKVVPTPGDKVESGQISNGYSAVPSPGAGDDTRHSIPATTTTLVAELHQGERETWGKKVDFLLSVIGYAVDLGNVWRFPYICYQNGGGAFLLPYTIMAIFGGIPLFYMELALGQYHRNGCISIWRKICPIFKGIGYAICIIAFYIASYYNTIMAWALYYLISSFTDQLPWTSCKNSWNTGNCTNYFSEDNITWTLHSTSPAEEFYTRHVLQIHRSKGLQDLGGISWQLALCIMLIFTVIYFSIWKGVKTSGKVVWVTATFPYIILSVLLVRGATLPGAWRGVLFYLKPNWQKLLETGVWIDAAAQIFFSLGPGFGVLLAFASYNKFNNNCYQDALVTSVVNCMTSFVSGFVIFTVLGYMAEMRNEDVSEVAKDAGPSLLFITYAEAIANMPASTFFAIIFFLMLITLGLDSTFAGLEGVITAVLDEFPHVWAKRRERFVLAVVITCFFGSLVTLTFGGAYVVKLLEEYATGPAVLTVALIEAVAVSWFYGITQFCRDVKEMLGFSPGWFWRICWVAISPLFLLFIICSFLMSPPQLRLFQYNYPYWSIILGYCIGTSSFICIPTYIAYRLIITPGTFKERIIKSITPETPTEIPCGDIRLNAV
T1 sequence (P14416 whole entry): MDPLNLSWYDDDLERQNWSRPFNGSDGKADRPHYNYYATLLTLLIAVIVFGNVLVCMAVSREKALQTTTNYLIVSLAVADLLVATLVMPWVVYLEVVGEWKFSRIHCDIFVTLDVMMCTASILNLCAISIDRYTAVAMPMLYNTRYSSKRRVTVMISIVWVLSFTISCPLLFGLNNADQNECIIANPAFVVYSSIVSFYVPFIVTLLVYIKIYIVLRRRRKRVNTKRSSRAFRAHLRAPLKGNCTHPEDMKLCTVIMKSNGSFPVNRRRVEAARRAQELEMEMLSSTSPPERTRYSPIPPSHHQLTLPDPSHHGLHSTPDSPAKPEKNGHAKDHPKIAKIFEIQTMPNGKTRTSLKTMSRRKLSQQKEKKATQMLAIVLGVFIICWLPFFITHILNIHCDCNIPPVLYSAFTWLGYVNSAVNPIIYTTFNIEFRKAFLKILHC

Compound `Fc1ccc2[nH]cc(C3=CCN(CC4COc5ccncc5O4)CC3)c2c1` (stereo not shown) [Compound 4] has an IC50 [1] of 158 nM, an IC50 [2] of 50.1 nM and an IC50 (human 5HT transporter) of 50.1 nM. The IC50 (Human 5HT1A receptor) was 126 nM.
